Biological target: T1, TgFPPS (Toxoplasma gondii, UniProt Q197X6)
T1 construct: gene FPPS; bifunctional enzyme making FPP and GGPP; enzyme assay as in Szajnman et al., 2008
T1 sequence (Q197X6 1-646): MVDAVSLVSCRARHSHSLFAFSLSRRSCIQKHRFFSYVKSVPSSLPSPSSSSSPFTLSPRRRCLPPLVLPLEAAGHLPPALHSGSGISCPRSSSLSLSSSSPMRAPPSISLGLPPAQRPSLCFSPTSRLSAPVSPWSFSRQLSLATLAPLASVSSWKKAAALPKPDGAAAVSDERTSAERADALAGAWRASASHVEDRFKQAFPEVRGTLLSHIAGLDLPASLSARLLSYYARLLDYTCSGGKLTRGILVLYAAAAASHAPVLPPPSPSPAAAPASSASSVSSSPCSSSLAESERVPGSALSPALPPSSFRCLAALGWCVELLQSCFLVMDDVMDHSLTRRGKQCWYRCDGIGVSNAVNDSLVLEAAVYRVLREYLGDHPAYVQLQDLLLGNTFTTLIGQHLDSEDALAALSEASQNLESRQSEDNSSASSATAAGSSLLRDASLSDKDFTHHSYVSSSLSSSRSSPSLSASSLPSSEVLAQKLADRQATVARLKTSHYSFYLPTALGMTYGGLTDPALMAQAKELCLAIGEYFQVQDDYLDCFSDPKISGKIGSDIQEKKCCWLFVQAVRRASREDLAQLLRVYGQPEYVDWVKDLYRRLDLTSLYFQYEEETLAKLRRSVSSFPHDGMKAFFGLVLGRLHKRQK
Assay: FPPS enzymatic activity assay
Format: biochemical
Source text: FPPS enzymatic activity assay on TgFPPS

Row | Structure (SMILES) | IC50 [nM]
1 | C=C(C)CNCC(P(=O)(O)O)P(=O)(O)O [compound 19, 1-[(2-Methylall-1-ylamino)ethyl] 1,1-bisphosphonic Acid] | 183 ± 63
2 | CCCCNCC(F)(P(=O)(O)O)P(=O)(O)O [compound 55, 1-[(n-But-1-ylamino)ethyl]-1-fluoro-1,1-bisphosphonic Acid] | 91 ± 32
3 | CC(C)=CCC/C(C)=C/CSCC(P(=O)(O)O)P(=O)(O)O [compound 44, 1-[((E)-3,7-Dimethylocta-2,6-diene-1-thio)ethyl] 1,1-bisphosphonic Acid] | 313 ± 27

From PMC6155738, “Antiparasitic Activity of Sulfur- and Fluorine-Containing Bisphosphonates against Trypanosomatids and Apicomplexan Parasites” (Molecules : A Journal of Synthetic Chemistry and Natural …, 2017)
